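96-well plates; 48 h exposure; 5 concentrations. Endpoints by linear interpolation between flanking doses. Not reached: highest tested concentration assigned. GI50 = concentration required for 50% inhibition of growth.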 The source made the active and inactive calls. Rule as the data show it: active = GI50 up to about 1.1 µM and inactive = higher.
Assays:
Assay in all cases: inhibition of tumour cell growth, NCI panel, 48 h
DU-145 = system: DU-145
MDA-N = system: MDA-N
PC-3 = system: PC-3
DMS-114 = system: DMS-114
LXFL 529 = system: LXFL 529
SNB-78 = system: SNB-78
DLD-1 = system: DLD-1
XF498 = system: XF498
RXF 631 = system: RXF 631

## CC(C)=C1C2CC3(C)CCC2(C)CCC13.CC1=CCC2C3(C)CCC2(C(C)C)C1C3 (configuration not stated)
DU-145
  GI50: 29.4 µM (inactive)
MDA-N
  GI50: 25.5 µM (inactive)
PC-3
  GI50: 39.3 µM (inactive)

## O=c1[nH]c(-c2ccccc2)nc2cc([N+](=O)[O-])c(/C(Cl)=C/c3ccccc3)cc12
DMS-114
  GI50: 35.7 µM (inactive)
LXFL 529
  GI50: 16.4 µM (inactive)
SNB-78
  GI50: 35 µM (inactive)

## C/C(=N\O)C1CC(CC(=O)O)C1(C)C (configuration not stated)
DU-145
  GI50: > 100 µM (inactive)
MDA-N
  GI50: > 100 µM (inactive)
PC-3
  GI50: > 100 µM (inactive)

## O=[N+]([O-])c1ccc(C2=Nc3ccccc3SC(c3ccccc3)C2)cc1 (configuration not stated)
DLD-1
  GI50: 18.9 µM (inactive)
DMS-114
  GI50: 18.2 µM (inactive)
LXFL 529
  GI50: 17.8 µM (inactive)
SNB-78
  GI50: 23.6 µM (inactive)
XF498
  GI50: 17.5 µM (inactive)

## Nc1n[nH]c(CCCCCCCc2nnc(N)[nH]2)n1
DLD-1
  GI50: > 100 µM (inactive)
DMS-114
  GI50: > 100 µM (inactive)
LXFL 529
  GI50: > 100 µM (inactive)
SNB-78
  GI50: > 100 µM (inactive)

## Nc1cc2[nH]c(=O)c3cc(Cl)ccc3c2cc1Cl
DU-145
  GI50: 12 µM (inactive)

## Cc1cc2c(cc1C)[n+]([O-])c(C(=O)/C=C/c1ccc(Cl)cc1)c(C)[n+]2[O-]
DLD-1
  GI50: 28.8 µM (inactive)
DMS-114
  GI50: 29.1 µM (inactive)
LXFL 529
  GI50: 28.2 µM (inactive)
SNB-78
  GI50: > 100 µM (inactive)
XF498
  GI50: 21.6 µM (inactive)

## COC(=O)/C=C(\C)CCC1SC1(C)C (configuration not stated)
DLD-1
  GI50: > 100 µM (inactive)
DMS-114
  GI50: 91.8 µM (inactive)
LXFL 529
  GI50: > 100 µM (inactive)
SNB-78
  GI50: > 100 µM (inactive)
XF498
  GI50: > 100 µM (inactive)

## COc1ccc(/C(Cl)=C(\C=O)c2ccc(OC)cc2)cc1
DLD-1
  GI50: 33.2 µM (inactive)
DMS-114
  GI50: > 100 µM (inactive)
LXFL 529
  GI50: > 100 µM (inactive)
RXF 631
  GI50: 58.3 µM (inactive)
SNB-78
  GI50: > 100 µM (inactive)

## CC(=O)OC/C=C\Cn1ncc(=O)[nH]c1=O
DU-145
  GI50: 24.2 µM (inactive)
MDA-N
  GI50: 14.9 µM (inactive)
PC-3
  GI50: 16 µM (inactive)

## CN(N)c1nc(N)c(C#N)c(C#N)c1C#N
DU-145
  GI50: > 10 µM (inactive)
MDA-N
  GI50: > 10 µM (inactive)
PC-3
  GI50: > 10 µM (inactive)

## COc1ccc(N[S+]([O-])c2ccc(-c3ccccc3)cc2)cc1 (configuration not stated)
DU-145
  GI50: > 100 µM (inactive)
MDA-N
  GI50: 97.7 µM (inactive)
PC-3
  GI50: 22.3 µM (inactive)

## Nc1cc(S(=O)(=O)O)cc2cc(S(=O)(=O)O)c(/N=N/c3ccc(-c4ccc(/N=N/c5c(S(=O)(=O)O)cc6cc(S(=O)(=O)O)cc(N)c6c5O)cc4)cc3)c(O)c12
DLD-1
  GI50: > 100 µM (inactive)
DMS-114
  GI50: > 100 µM (inactive)
SNB-78
  GI50: > 100 µM (inactive)
XF498
  GI50: > 100 µM (inactive)

## CC1OC(O)CC(OC(=O)c2ccccc2)C1OC(=O)c1ccccc1 (configuration not stated)
DLD-1
  GI50: 14.3 µM (inactive)
LXFL 529
  GI50: 16.2 µM (inactive)
XF498
  GI50: 19.9 µM (inactive)

## CC1(C)[C@@H]2C[C@H]1C(Cc1ccccc1C[C@H]1c3cc(-c4ccccn4)ncc3[C@H]3C[C@@H]1C3(C)C)c1cc(-c3ccccn3)ncc12 (some centres not stated)
DU-145
  GI50: 0.375 µM (active)
MDA-N
  GI50: 0.578 µM (active)
PC-3
  GI50: 0.47 µM (active)

## C[Si](C)(C)OC1(C#N)c2ccccc2CCCC12CCCC2 (configuration not stated)
DU-145
  GI50: 61.1 µM (inactive)
MDA-N
  GI50: 46 µM (inactive)
PC-3
  GI50: 41.1 µM (inactive)

## CCOCCOc1ccc(OCCOCC)cc1
DLD-1
  GI50: 10.1 µM (inactive)
DMS-114
  GI50: 4.51 µM (inactive)
SNB-78
  GI50: > 42.7 µM (inactive)
XF498
  GI50: 16.4 µM (inactive)

## CCN1C(=O)C(=Cc2ccc(-c3ccccc3)cc2)C(=O)N(CC)C1=S
DU-145
  GI50: > 100 µM (inactive)
PC-3
  GI50: > 100 µM (inactive)

## O=C(Nc1ccccc1Br)c1cccc([N+](=O)[O-])c1O
DLD-1
  GI50: 4.32 µM (inactive)
DMS-114
  GI50: 3.18 µM (inactive)
LXFL 529
  GI50: 3.15 µM (inactive)
RXF 631
  GI50: 17.7 µM (inactive)
SNB-78
  GI50: 5.09 µM (inactive)

## CCOC(=O)NC(=O)c1cn(CC(=O)NCC(=O)NCC(=O)N2CCN(CCn3c(C)nc(C(N)=O)c3N)CC2)c(=O)[nH]c1=O
DLD-1
  GI50: > 100 µM (inactive)
DMS-114
  GI50: > 100 µM (inactive)
LXFL 529
  GI50: > 100 µM (inactive)
RXF 631
  GI50: > 100 µM (inactive)
SNB-78
  GI50: > 100 µM (inactive)
XF498
  GI50: > 100 µM (inactive)

## CSCC(CO)NC(=O)/C=C/c1c(C)[nH]c(=O)[nH]c1=O (configuration not stated)
DLD-1
  GI50: 512 µM (inactive)
DMS-114
  GI50: 164 µM (inactive)
SNB-78
  GI50: > 853 µM (inactive)
XF498
  GI50: 311 µM (inactive)

## COc1cc2c(cc1OC)C(=O)/C(=C/c1cc(C)cc(C)c1)C2
DU-145
  GI50: 0.198 µM (active)
MDA-N
  GI50: < 0.0156 µM (active)
PC-3
  GI50: 0.0667 µM (active)

## CC1(C)CC[C@]2(C)CC[C@]3(C)C(=CC[C@@H]4[C@@]5(C)CCC(=O)C(C)(C)[C@@H]5[C@H](O)C[C@]43C)[C@@H]2C1
DU-145
  GI50: 18.2 µM (inactive)
MDA-N
  GI50: 15.6 µM (inactive)
PC-3
  GI50: 17.1 µM (inactive)

## CN1C2CCC1CC(C)(O)C2 (configuration not stated)
DU-145
  GI50: > 100 µM (inactive)
MDA-N
  GI50: > 100 µM (inactive)
PC-3
  GI50: > 100 µM (inactive)

## NC(=O)c1ccccc1NC(=O)C(=O)C(C(=O)c1ccc2ccccc2c1)C1OC(=O)c2ccccc21 (configuration not stated)
LXFL 529
  GI50: 8.17 µM (inactive)
SNB-78
  GI50: 10.5 µM (inactive)
XF498
  GI50: 2.59 µM (inactive)

## N=c1c2c(=S)n(-c3ccccc3)c(=S)n(-c3ccccc3)c2nc(SCCCN2CCN(c3cccc(Cl)c3)CC2)n1-c1ccccc1
DU-145
  GI50: 52.8 µM (inactive)
PC-3
  GI50: 43.9 µM (inactive)

## CCN(CC)CCOc1ccc(N2Cc3cc(OC)c(OC)cc3C2=O)cc1
DU-145
  GI50: > 100 µM (inactive)
MDA-N
  GI50: > 100 µM (inactive)
PC-3
  GI50: > 100 µM (inactive)

## CN(C)C(=O)C1CCC(=C2C(=O)OC(C)(C)OC2=O)N1C (configuration not stated)
DLD-1
  GI50: > 100 µM (inactive)
DMS-114
  GI50: > 100 µM (inactive)
LXFL 529
  GI50: > 100 µM (inactive)
SNB-78
  GI50: > 100 µM (inactive)
XF498
  GI50: > 100 µM (inactive)

## CC(C)=CC(=O)OC1C2C(C)=CC(O)C(O)C2(C)C2C3(O)OCC24C(CC(=O)OC14)C(C)C3O (configuration not stated)
DLD-1
  GI50: 0.0716 µM (active)
DMS-114
  GI50: 0.0162 µM (active)
SNB-78
  GI50: 0.272 µM (active)
XF498
  GI50: 0.122 µM (active)

## CC(=O)OC1=C2CC3(C)OC(=O)CC(C)(C)C3=CC=C2C=C(C(C)C)C1=O (configuration not stated)
DLD-1
  GI50: 0.203 µM (active)
DMS-114
  GI50: 0.366 µM (active)
LXFL 529
  GI50: 0.157 µM (active)
RXF 631
  GI50: 0.723 µM (active)
SNB-78
  GI50: 0.282 µM (active)

## O=CCCn1[nH]c(=O)ccc1=O
DLD-1
  GI50: > 100 µM (inactive)
DMS-114
  GI50: > 100 µM (inactive)
SNB-78
  GI50: > 100 µM (inactive)

## OC1COC2CC(Nc3ccccn3)OC12 (configuration not stated)
MDA-N
  GI50: > 100 µM (inactive)
PC-3
  GI50: > 100 µM (inactive)

## COc1ccc(/C=C2\CC3C4CC=C5C[C@@H](O)CC[C@]5(C)C4CC[C@]3(C)\C2=N\O)cc1OC (some centres not stated)
DU-145
  GI50: 26.1 µM (inactive)
MDA-N
  GI50: 14.1 µM (inactive)
PC-3
  GI50: 6.03 µM (inactive)

## O=C(O)C(Cc1ccc(O)cn1)NC(=O)C(F)(F)F (configuration not stated)
DU-145
  GI50: > 100 µM (inactive)
MDA-N
  GI50: > 100 µM (inactive)
PC-3
  GI50: > 100 µM (inactive)

## COC(=O)C1(Cc2ccccc2)Cc2cc3c(cc2C1)CCC3
DU-145
  GI50: 34.5 µM (inactive)
MDA-N
  GI50: 16 µM (inactive)
PC-3
  GI50: 24 µM (inactive)

## CCc1ccc(Nc2cc(=O)[nH]c(=S)n2C)cc1
DLD-1
  GI50: > 100 µM (inactive)
DMS-114
  GI50: > 100 µM (inactive)
LXFL 529
  GI50: > 100 µM (inactive)
SNB-78
  GI50: > 100 µM (inactive)
XF498
  GI50: > 100 µM (inactive)

## CC(=O)/N=C1/N(/C=C2\C(=O)Oc3ccccc3C2=O)C(=O)/C(=C/c2ccc(OC(C)=O)cc2)N1C
DU-145
  GI50: > 100 µM (inactive)
MDA-N
  GI50: > 100 µM (inactive)
PC-3
  GI50: > 100 µM (inactive)

## S=C1SC(=N\c2ccccc2)/C(=N/c2ccccc2)N1c1ccccc1
DU-145
  GI50: > 100 µM (inactive)
MDA-N
  GI50: > 100 µM (inactive)
PC-3
  GI50: > 100 µM (inactive)

## CNc1ccccc1-c1nc2ccccc2c(=O)o1
DLD-1
  GI50: > 100 µM (inactive)
DMS-114
  GI50: > 100 µM (inactive)
LXFL 529
  GI50: > 100 µM (inactive)
RXF 631
  GI50: > 100 µM (inactive)
SNB-78
  GI50: 55.3 µM (inactive)
XF498
  GI50: 31 µM (inactive)

## Cc1c2cccc-2ccc2c3ccccc3n(C(=O)c3ccc(Cl)cc3)c12
DU-145
  GI50: > 100 µM (inactive)
PC-3
  GI50: > 100 µM (inactive)

## COC(=O)c1ccc(/C=C2\N=C(C)OC2=O)cc1
DLD-1
  GI50: > 100 µM (inactive)
DMS-114
  GI50: > 100 µM (inactive)
LXFL 529
  GI50: > 100 µM (inactive)
RXF 631
  GI50: > 100 µM (inactive)
XF498
  GI50: > 100 µM (inactive)

## COc1cccc(NC(=O)CC(=O)n2nc(-c3ccccc3)c(/N=N/c3ccc(Cl)cc3)c2-c2ccccc2)c1
DU-145
  GI50: 25.3 µM (inactive)
MDA-N
  GI50: 38.8 µM (inactive)
PC-3
  GI50: 27.9 µM (inactive)

## O=C(c1ccco1)C1CC(c2c(O)ccc3ccccc23)=NN1 (configuration not stated)
DU-145
  GI50: 14.1 µM (inactive)
MDA-N
  GI50: 12.6 µM (inactive)
PC-3
  GI50: 8.79 µM (inactive)

Source: ChEMBL document CHEMBL1201862, “PubChem BioAssay data set” (2004)
